This is an account of results in patent US9464056B2, “Fungicidal 4-methylanilino pyrazoles” (E. I. DU PONT DE NEMOURS AND COMPANY, priority 2012, dated 2016).

For one data set, the system named is Septoria nodorum. Briefly: Test C: preventive spray on wheat seedlings, Septoria nodorum (Septoria glume blotch), visual disease rating. Type of data set: in vivo. The settings on record: Parastagonospora nodorum, topical, 264 h, 100 = 100% disease control, 0 = no disease control relative to controls. From the text:
(§1) General protocol for preparing test suspensions for Tests A-H: the test compounds were first dissolved in acetone in an amount equal to 3% of the final volume and then suspended at the desired concentration (in ppm) in acetone and purified water (50/50 mix by volume) containing 250 ppm of the surfactant Trem® 014 (polyhydric alcohol esters). The resulting test suspensions were then used in Tests A-F. Spraying a 40 ppm test suspension to the point of run-off on the test plants was the equivalent of a rate of 160 g/ha. Unless otherwise indicated, the rating values indicate a 40 ppm test suspension was used. The test suspension was sprayed to the point of run-off on wheat seedlings. The following day the seedlings were inoculated with a spore suspension of Septoria nodorum (the causal agent of Septoria glume blotch) and incubated in a saturated atmosphere at 20° C. for 48 h, and then moved to a growth chamber at 20° C. for 9 days, after which time visual disease ratings were made. Results for Tests A-F are given in Table A. In the Table, a rating of 100 indicates 100% disease control and a rating of 0 indicates no disease control (relative to the controls). A dash (-) indicates no test results.

A further data set has as its system Botrytis cinerea. Description: Test A: preventive spray on tomato seedlings, Botrytis cinerea (tomato Botrytis), visual disease rating. Type of data set: in vivo. The following applies: 100 = 100% disease control, 0 = no disease control relative to controls. From the text: General protocol for preparing test suspensions for Tests A-H: the test compounds were first dissolved in acetone in an amount equal to 3% of the final volume and then suspended at the desired concentration (in ppm) in acetone and purified water (50/50 mix by volume) containing 250 ppm of the surfactant Trem® 014 (polyhydric alcohol esters). The resulting test suspensions were then used in Tests A-F. Spraying a 40 ppm test suspension to the point of run-off on the test plants was the equivalent of a rate of 160 g/ha. Unless otherwise indicated, the rating values indicate a 40 ppm test suspension was used. The test suspension was sprayed to the point of run-off on tomato seedlings. The following day the seedlings were inoculated with a spore suspension of Botrytis cinerea (the causal agent of tomato Botrytis) and incubated in saturated atmosphere at 20° C. for 48 h, and then moved to a growth chamber at 27° C. for 3 days, after which time visual disease ratings were made. Results for Tests A-F are given in Table A. In the Table, a rating of 100 indicates 100% disease control and a rating of 0 indicates no disease control (relative to the controls). A dash (-) indicates no test results.

Data set [1] deals with Blumeria graminis f. sp. tritici. Briefly: Test F: preventive spray on wheat seedlings, Blumeria graminis f. sp. tritici (wheat powdery mildew), visual disease rating. Type of data set: in vivo. The settings on record: topical, 192 h, 100 = 100% disease control, 0 = no disease control relative to controls.
Text: as §1, with “spore dust” for “spore suspension”, “of Blumeria graminis f. sp. tritici (also known as Erysiphe graminis f. sp. tritici, the” for “of Septoria nodorum (the”, “of wheat powdery mildew)” for “of Septoria glume blotch)”, “in” for “in a saturated atmosphere at 20° C. for 48 h, and then moved to”, “for 8” for “for 9”

The subject of another data set is Septoria tritici. Briefly: Test D: preventive spray on wheat seedlings, Septoria tritici (wheat leaf blotch), visual disease rating. The class given is in vivo. The following applies: Zymoseptoria tritici, topical, 504 h, 100 = 100% disease control, 0 = no disease control relative to controls. The source says: General protocol for preparing test suspensions for Tests A-H: the test compounds were first dissolved in acetone in an amount equal to 3% of the final volume and then suspended at the desired concentration (in ppm) in acetone and purified water (50/50 mix by volume) containing 250 ppm of the surfactant Trem® 014 (polyhydric alcohol esters). The resulting test suspensions were then used in Tests A-F. Spraying a 40 ppm test suspension to the point of run-off on the test plants was the equivalent of a rate of 160 g/ha. Unless otherwise indicated, the rating values indicate a 40 ppm test suspension was used. The test suspension was sprayed to the point of run-off on wheat seedlings. The following day the seedlings were inoculated with a spore suspension of Septoria tritici (the causal agent of wheat leaf blotch) and incubated in saturated atmosphere at 24° C. for 48 h, and then moved to a growth chamber at 20° C. for 19 days, after which time visual disease ratings were made. Results for Tests A-F are given in Table A. In the Table, a rating of 100 indicates 100% disease control and a rating of 0 indicates no disease control (relative to the controls). A dash (-) indicates no test results.

Data set [2] has as its system Puccinia recondita f. sp. tritici. Briefly: Test E2: preventive spray on wheat seedlings, Puccinia recondita f. sp. tritici (wheat leaf rust), visual disease rating. Type of data set: in vivo. The settings on record: topical, 192 h, 100 = 100% disease control, 0 = no disease control relative to controls. From the text:
General protocol for preparing test suspensions for Tests A-H: the test compounds were first dissolved in acetone in an amount equal to 3% of the final volume and then suspended at the desired concentration (in ppm) in acetone and purified water (50/50 mix by volume) containing 250 ppm of the surfactant Trem® 014 (polyhydric alcohol esters). The resulting test suspensions were then used in Tests A-F. Spraying a 40 ppm test suspension to the point of run-off on the test plants was the equivalent of a rate of 160 g/ha. Unless otherwise indicated, the rating values indicate a 40 ppm test suspension was used. The test suspension was sprayed to the point of run-off on wheat seedlings. The following day the seedlings were inoculated with a spore suspension of Puccinia recondita f. sp. tritici (the causal agent of wheat leaf rust) and incubated in a saturated atmosphere at 20° C. for 24 h, and then moved to a growth chamber at 20° C. for 7 days, after which time visual disease ratings were made. Results for Tests A-F are given in Table A. In the Table, a rating of 100 indicates 100% disease control and a rating of 0 indicates no disease control (relative to the controls). A dash (-) indicates no test results.

Molecule `Cc1cc(F)c(Nc2c(-c3ccc(F)cc3Br)c(C)nn2C)c(F)c1` [Compound 14, 4-(2-bromo-4-fluorophenyl)-N-(2,6-difluoro-4-methylphenyl)-1,3-dimethyl-1H-pyrazol-5-amine] registered a melting point of 114 to 116 °C. Further, in the data set on Septoria nodorum, the pest or weed control at 40 µg/mL amounted to 86%. The molecule further had a pest or weed control at 40 µg/mL in the data set on Botrytis cinerea of 100%. Besides, the pest or weed control at 40 µg/mL in data set [1] was determined as 100%. The same molecule had a pest or weed control at 40 µg/mL in the data set with Septoria tritici of 100%. Further, the pest or weed control at 40 µg/mL in data set [2] came out at 100%.

`Cc1cc(F)c(Nc2c(-c3ccc(F)cc3Br)c(C)nn2C)c(Br)c1` [Compound 7, N-(2-bromo-6-fluoro-4-methylphenyl)-4-(2-bromo-4-fluorophenyl)-1,3-dimethyl-1H-pyrazol-5-amine] displayed a melting point of 143 to 145 °C. For the same molecule, the pest or weed control at 40 µg/mL in the data set with Septoria nodorum turned out to be 99%. The molecule further had a pest or weed control at 40 µg/mL in the data set on Botrytis cinerea of 100%. In addition, the pest or weed control at 40 µg/mL in data set [1] was 100%. Further, the pest or weed control at 40 µg/mL in the data set on Septoria tritici is 100%. In data set [2], the pest or weed control at 40 µg/mL was 100%.
